# Assay results from US20240335431A1, “1-H-PYRROLO[2,3-c]PYRIDINE COMPOUNDS” (Acerta Pharma B.V., priority 2023, published 2024).
# How the values were obtained:
# MV-4-11 AML cells = experiment: MLLr AML xenograft model MV-4-11; type: in vivo, female CB17 SCID mice; conditions: for % REGRESSION AT DOSING END / % TUMOR REGROWTH AT STUDY END: 14 days
# Description: MV-4-11 cells were grown in RPM1 1640 (Gibco, #21875091) supplemented with 10% FBS (Gibco; #10091-148) and 1% Pen/Strep (Gibco; #15140-122). Cells were harvested and resuspended in PBS/Matrigel (Corning; #CLS354234) (50/50). The compound of Example 56-2 was formulated in water at pH 4.5-5 using 1 M MSA as pH-adjusting agent at the concentrations up to 100 mg/mL to achieve a uniform suspension and dosed twice daily by oral gavage 10 mL/kg. For convenience, the compound of Example 56-2 is referred to as “Compound 56-2” in this Example and the other Examples.
# 10 million human MV-4-11 AML cells were implanted subcutaneously in the right flank of female CB17 SCID mice. Mice were randomized into groups of 5 when average tumor volume reached approximately 160 mm^3. Mice were treated for 14 days with vehicle (water at pH 4.5-5 using 1M MSA) or Compound 56-2 at 30, 100, or 200 mg/kg. Compound 56-2 was dosed orally twice daily 8/16 hours apart. The group administered Compound 56-2 at 30, 100, 200 mg/kg were monitored for regrowth for 6 weeks. […] FIG. 1 illustrates the effect of treatment with Compound 56-2 on tumor volume in this MLLr MV-4-11 human AML cancer xenograft mouse model.
# MOLM-13 AML cells = experiment: MLLr AML xenograft model MOLM-13; type: in vivo, female CB17 SCID mice; conditions: for tumor response (in words): 30 mg/kg
# Description: MOLM-13 cells were grown in RPM1 1640 (Gibco, #21875091) supplemented with 10% FBS (Gibco; #10091-148) and 1% Pen/Strep (Gibco; #15140-122). Cells were harvested and resuspended in PBS/Matrigel (Corning; #CLS354234) (50/50). Compound 56-2 was formulated in water at pH 4.5-5 using 1 M MSA as pH-adjusting agent at the concentrations up to 100 mg/mL to achieve a uniform suspension and dosed twice daily by oral gavage 10 mL/kg.
# 1 million human MOLM-13 AML cells were implanted subcutaneously in the right flank of female CB17 SCID mice. Mice were randomized into groups of 5 when average tumor volume reached approximately 160 mm^3. Mice were treated for 21 days with vehicle (water at pH 4.5-5 using 1 M MSA) or Compound 56-2 at 30, 100, or 200 mg/kg. Test compound was dosed orally twice daily 8/16 hours apart. The group administered Compound 56-2 at 30, 100, 200 mg/kg were monitored for regrowth for 3 weeks. […] FIG. 2A illustrates the effect of treatment with Compound 56-2 on tumor volume in this MLLr MOLM-13 human AML cancer xenograft mouse model.
# In a second cohort of mice, MOLM-13 AML cells were implanted and randomized as described above. Mice were treated until tumor outgrowth with vehicle (water at pH 4.5-5 using 1 M MSA) or Compound 56-2 at 30 mg/kg or 150 mg/kg. Test compound was dosed orally twice daily 8/16 hours apart. […] FIG. 2B illustrates the effect of treatment with Compound 56-2 on tumor volume in this MLLr MOLM-13 human AML cancer xenograft mouse model.
# MOLM-13 cells = experiment: Cell death in MOLM-13 cell line, Compound 56-2 with BCL2 inhibitor venetoclax (CellTiter-Glo, 4 days); type: cell-based, human
# Description: Test compound was dispensed using a Tecan compound dispenser into 384-well plates (Microplate 384-well, polypropylene, F-bottom; Greiner Bio-One, #781201) in a ten-by-ten response matrix to assess the combination effects of Menin inhibition (Compound 56-2) together with BCL-2 inhibition (venetoclax) at the following concentrations after subsequent cell seeding in 40 μL of growth media: 10 μM, 3.16 μM, 1 μM, 0.316 μM, 0.1 μM, 0.0316 μM, 0.01 μM, 0.00316 μM, […], and vehicle (DMSO; Sigma-Aldrich, D2650). Cells were seeded at 1000 cells per well and incubated at 37° C. and 5% CO2. MOLM-13 cells were grown in RPM1 1640 (Gibco, #21875091) supplemented with 10% FBS (Gibco; #10091-148) and 1% Pen/Strep (Gibco; #15140-122). After 4 days of compound treatment, plates were placed at room temperature for 15 minutes. 10 μL CellTiter-Glo reagent (Promega, #G9242) was added to the cells and incubated for 10 minutes in the dark on a plate shaker at room temperature. A backseal (Perkin Elmer; #6005199) was added to the plates and luminescence was measured at 0.1 sec/well in an Envision (Perkin Elmer). Data were normalized for each plate so that the average of control wells (DMSO) was set to 0%, and the maximum observed value across the plate was set as 100%. Data fitting was performed using Graphpad Prism and combination effect was assessed using SynergyFinder.
# [1] = second cohort, 30 mg/kg oral twice daily, 41 days or less
compound,measurement,setting,value
"Cc1c(C(=O)C2CCN(C(=O)[C@@H]3CCC(C)(C)N3)CC2)c2ccncc2n1-c1ccc(F)cc1C(=O)N(C(C)C)C(C)C (single isomer, unassigned) [Compound 56-2]",% REGRESSION AT DOSING END,MV-4-11 AML cells; 30 mg/kg oral twice daily,88%
same,% TUMOR REGROWTH AT STUDY END,"MV-4-11 AML cells; 30 mg/kg oral twice daily, monitored 6 weeks",100%
same,tumor regrowth (in words),"MV-4-11 AML cells; 100 mg/kg and 200 mg/kg, monitored 6 weeks",no tumor regrowth
same,% REGRESSION AT DOSING END,MV-4-11 AML cells; 100 mg/kg oral twice daily,97%
same,% TUMOR REGROWTH AT STUDY END,"MV-4-11 AML cells; 100 mg/kg oral twice daily, monitored 6 weeks",0%
same,% REGRESSION AT DOSING END,MV-4-11 AML cells; 200 mg/kg oral twice daily,99%
same,% TUMOR REGROWTH AT STUDY END,"MV-4-11 AML cells; 200 mg/kg oral twice daily, monitored 6 weeks",0%
same,% REGRESSION AT END OF TREATMENT,"MOLM-13 AML cells; 30 mg/kg oral twice daily, 21 days",6.2%
same,% TUMOR REGROWTH AT STUDY END,"MOLM-13 AML cells; 30 mg/kg oral twice daily, 21 days, monitored 3 weeks",100%
same,tumor response (in words),MOLM-13 AML cells; 21 days,outgrew after treatment end
same,tumor response at end of treatment (in words),"MOLM-13 AML cells; 100 mg/kg and 200 mg/kg, 21 days",complete tumor regressions
same,% REGRESSION AT END OF TREATMENT,"MOLM-13 AML cells; 100 mg/kg oral twice daily, 21 days",89.8%
same,% TUMOR REGROWTH AT STUDY END,"MOLM-13 AML cells; 100 mg/kg oral twice daily, 21 days, monitored 3 weeks",80%
same,% REGRESSION AT END OF TREATMENT,"MOLM-13 AML cells; 200 mg/kg oral twice daily, 21 days",98.5%
same,% TUMOR REGROWTH AT STUDY END,"MOLM-13 AML cells; 200 mg/kg oral twice daily, 21 days, monitored 3 weeks",100%
same,% REGRESSION AT END OF TREATMENT,MOLM-13 AML cells; [1],0%
same,% TUMOR REGROWTH AT STUDY END,MOLM-13 AML cells; [1],0%
same,tumor response (in words),"MOLM-13 AML cells; second cohort, 41 days or less",all animals outgrew treatment
same,% REGRESSION AT END OF TREATMENT,"MOLM-13 AML cells; second cohort, 150 mg/kg oral twice daily, 90 days",100%
same,tumor response at end of treatment (in words),"MOLM-13 AML cells; second cohort, 150 mg/kg, 90 days",complete tumor regression
same,% TUMOR REGROWTH AT STUDY END,"MOLM-13 AML cells; second cohort, 150 mg/kg, 90 days, monitored additional 70 days",100%
same,cell viability as monotherapy (in words),MOLM-13 cells,cell viability loss was induced
